# How the values were obtained:
# [1] = parameters: species or system male Sprague-Dawley rats; conditions: rat, in vivo, po
# Description: The solutions for gavage were prepared as follows: 35 mg of urolithin A powder was diluted in 7 ml of 15% DMSO, 0.5% methyl cellulose/0.25% Tween 80 in water, resulting in a 5 mg/ml fine suspension. The DMSO was obtained from BDH, methyl cellulose was obtained from Sigma, and Tween 80 was obtained from Sigma-Aldrich.
# Blood was collected from the rats by jugular vein cannulation at different time points, and urolithin A was quantified in the plasma to determine its pharmacokinetic profile following oral gavage of Sample #1, Sample #2, and Sample #3. The study was repeated on three rats for each sample. […]
# [2] = test system: 22 month old C57BL/6J old mice; assay: Treadmill endurance test in old mice fed a high protein diet with or without Urolithin A; format: in vivo; conditions: Urolithin A 50 mg/kg/day in high protein diet, 6 weeks, normalized over basal values, compared to mice receiving only a protein diet; no exercise regimen
# Excerpt: To mimic age related muscle loss in humans, an experimental animal model was setup in old mice. The control diet designed to be used in the experimental study was a high protein diet that would be analogous to a clinically recommended high protein diet in elderly humans at risk of muscle loss. The diet was formulated to improve the performance of old animals that consume them. The high protein diet has a better balance of essential nutrients (amino acids, vitamins and minerals) and is supplemented with 200 gr casein per kg of diet, instead of 140 gr of casein in the regular maintenance diet (Reeves PG, J. Nutr. 1997, 127(5) 838S-841S). Casein proteins are nutritionally complete, highly digestible proteins with high amino scores that contain all amino acids in amounts sufficient to support maintenance of all body proteins. Urolithin A was admixed to the high protein diet at a level of 0.57 g per kg of diet. Both the diets were isocaloric. 22 month old C57BL/6J old mice that would be equivalent to a 65 yr to 75 yr old elderly human were treated with either the high protein diet alone or a high protein diet containing Urolithin A. Both the diets contained in addition to the casein protein, essential nutrient for optimal muscle function such as L-cysteine and vitamins and mineral mix. The level of Urolithin A in the diet results in a dose of 50 mg/kg/day delivered to mice. […]
# myotubes = conditions: in vitro; cited from earlier work
compound,measurement,setting,value
"O=c1oc2cc(O)ccc2c2ccc(O)cc12 [Sample #2, Urolithin A]",fold increase in the Cmax,"[1]; male, Sprague-Dawley, 25 mg/kg",2.16 fold
same,relative increase in the AUC,"[1]; male, Sprague-Dawley, 25 mg/kg",28%
same,relative increase in the Cmax,"[1]; male, Sprague-Dawley, 25 mg/kg",116%
"O=c1oc2cc(O)ccc2c2ccc(O)cc12 [Sample #3, Urolithin A]",relative increase in the AUC,"[1]; male, Sprague-Dawley, 25 mg/kg",26%
O=c1oc2cc(O)ccc2c2ccc(O)cc12 [Urolithin A],increase in running distance,[2],42%
same,increase in running time,[2],28%
same,bioavailability (in words),[1],increase in bioavailability
O=c1oc2cc(O)ccc2c2ccccc12 [Urolithin B],effect on mean diameter of myotubes,myotubes,increased
